Assay results as given in patent US9079876B2, “Imidazole derivatives and preparation method and use thereof” (Beijing Orbiepharm Co., Ltd., priority 2010, dated 2015).

Tests used:
[1] = biological target: T1, cyclooxygenase-1 (COX-1 enzyme) (Homo sapiens, UniProt P23219); assay: Human whole blood in vitro activity assay, COX-1 (TXB2 by EIA); assay type: cell-based; details: read-out: IC50 (μg/mL) COX-1 (converted)
T1 construct: from tissue; host or cells: human whole blood without heparin (platelets) from healthy volunteers
Protocol: (§1) Human whole blood in vitro activity study: inhibition of activity of cyclooxygenase-1 (COX-1 enzyme) and cyclooxygenase-2 (COX-2 enzyme) in human blood. […] The blood samples were divided into two parts: one was used for detecting COX-1 enzyme activity, and the other was used for detecting COX-2 enzyme activity. The compounds were dissolved in DMSO, and were prepared in advance into 2 μL solutions in respective concentrations of 500, 50, 5, 0.5, 0.05, 0.005, 0.0005 μg/mL. 200 μL whole blood without heparin was added in the tubes containing the compounds, and then incubated at 37° C. for 1 hour. The activity of COX-1 enzyme was detected by determining the amount of thromboxane B2 (TXB2) synthesized by platelet using an EIA kit. Samples tested without the compounds were negative controls. For COX-2, 200 μL whole blood with heparin was added in the tubes containing the compounds and in the tubes containing 10 μg/mL LPS. LPS control and blank control with solvent only were used respectively for determining the maximum value and the background value of the PGE2 produced therefrom. The samples were incubated at 37° C. for 24 hours, and then centrifuged to collect serum/plasma, which was stored at −80° C. for detection by an EIA kit. The EIA kit of Cayman Company was used, the amounts of TXB2 and PGE2 were determined in accordance to the manufacturer's instructions, and the activities of COX-1 and COX-2 were tested respectively.

[2] = biological target: T2, cyclooxygenase-2 (COX-2 enzyme) (Homo sapiens, UniProt P35354); assay: Human whole blood in vitro activity assay, COX-2 (LPS-induced PGE2 by EIA); assay type: cell-based; details: for IC50: LPS, PGE2, read-out: IC50 (μg/mL) COX-2 (converted)
T2 construct: from tissue; host or cells: heparinised human whole blood from healthy volunteers, stimulated with LPS
T2 sequence (P35354 18-604): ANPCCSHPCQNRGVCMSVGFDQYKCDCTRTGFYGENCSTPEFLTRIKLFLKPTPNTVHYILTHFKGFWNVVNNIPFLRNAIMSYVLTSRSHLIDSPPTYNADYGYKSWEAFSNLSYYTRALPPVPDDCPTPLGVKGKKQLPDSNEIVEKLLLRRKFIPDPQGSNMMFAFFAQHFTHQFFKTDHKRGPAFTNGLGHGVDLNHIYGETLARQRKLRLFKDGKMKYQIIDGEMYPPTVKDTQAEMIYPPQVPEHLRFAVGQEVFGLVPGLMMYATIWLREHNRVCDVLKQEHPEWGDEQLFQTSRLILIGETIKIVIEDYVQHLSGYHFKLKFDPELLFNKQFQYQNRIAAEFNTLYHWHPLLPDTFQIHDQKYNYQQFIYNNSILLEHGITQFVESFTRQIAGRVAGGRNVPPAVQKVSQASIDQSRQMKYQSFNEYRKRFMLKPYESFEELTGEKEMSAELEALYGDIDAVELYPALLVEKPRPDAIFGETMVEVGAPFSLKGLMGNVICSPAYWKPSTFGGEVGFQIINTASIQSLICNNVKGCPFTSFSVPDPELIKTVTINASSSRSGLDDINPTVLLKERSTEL
Protocol: as §1

COX-1 = biological target: T3, COX-1 (Canis lupus familiaris, UniProt Q8HZR1); assay: Dog whole blood in vitro activity assay, COX-1; assay type: cell-based, beagle dog; details: read-out: IC50 (μg/mL) COX-1 (converted)
T3 construct: in vitro activity study using beagle dog whole blood was conducted; from tissue; host or cells: beagle dog whole blood (platelets, by the same method as for human blood)
T3 sequence (Q8HZR1 28-603): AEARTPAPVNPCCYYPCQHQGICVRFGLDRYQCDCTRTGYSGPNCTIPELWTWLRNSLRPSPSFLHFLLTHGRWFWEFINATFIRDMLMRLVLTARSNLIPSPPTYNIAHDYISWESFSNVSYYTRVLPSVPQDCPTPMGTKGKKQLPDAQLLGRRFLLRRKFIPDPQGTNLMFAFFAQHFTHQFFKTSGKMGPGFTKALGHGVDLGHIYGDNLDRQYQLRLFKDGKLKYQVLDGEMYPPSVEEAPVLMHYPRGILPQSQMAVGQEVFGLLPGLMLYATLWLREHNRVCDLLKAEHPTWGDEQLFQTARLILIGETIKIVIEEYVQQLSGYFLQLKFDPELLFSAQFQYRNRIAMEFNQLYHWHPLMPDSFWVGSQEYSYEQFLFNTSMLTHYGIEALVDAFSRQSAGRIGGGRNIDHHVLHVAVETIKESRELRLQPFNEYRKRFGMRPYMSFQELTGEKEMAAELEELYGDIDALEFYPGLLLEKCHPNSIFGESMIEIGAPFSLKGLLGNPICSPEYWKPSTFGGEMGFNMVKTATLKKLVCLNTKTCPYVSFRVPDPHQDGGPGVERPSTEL

COX-2 = biological target: T4, COX-2 (Canis lupus familiaris, UniProt Q8SPQ9); assay: Dog whole blood in vitro activity assay, COX-2; assay type: cell-based, beagle dog; details: for IC50: read-out: IC50 (μg/mL) COX-2 (converted)
T4 construct: in vitro activity study using beagle dog whole blood was conducted; from tissue; host or cells: beagle dog whole blood, stimulated with LPS (by the same method as for human blood)
T4 sequence (Q8SPQ9 18-604): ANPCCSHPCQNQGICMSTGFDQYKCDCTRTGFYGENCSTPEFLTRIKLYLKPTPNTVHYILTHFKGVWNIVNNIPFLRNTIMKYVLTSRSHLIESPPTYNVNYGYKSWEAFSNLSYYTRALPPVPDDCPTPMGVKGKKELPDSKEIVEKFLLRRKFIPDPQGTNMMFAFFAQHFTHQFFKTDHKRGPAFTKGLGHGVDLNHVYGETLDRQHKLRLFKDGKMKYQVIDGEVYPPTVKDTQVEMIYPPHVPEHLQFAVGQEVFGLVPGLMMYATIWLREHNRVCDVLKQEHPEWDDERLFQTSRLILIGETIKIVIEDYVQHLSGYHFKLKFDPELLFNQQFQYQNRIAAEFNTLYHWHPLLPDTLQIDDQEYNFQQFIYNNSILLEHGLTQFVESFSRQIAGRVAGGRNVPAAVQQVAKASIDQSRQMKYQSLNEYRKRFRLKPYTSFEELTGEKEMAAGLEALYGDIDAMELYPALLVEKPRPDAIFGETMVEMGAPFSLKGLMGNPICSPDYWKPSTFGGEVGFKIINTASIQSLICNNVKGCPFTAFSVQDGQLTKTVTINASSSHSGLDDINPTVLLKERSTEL

[3] = Pharmacokinetic study, intravenous, rats; assay type: in vivo; details: male SD rats, IV 2 mg/kg
Protocol: Cimicoxib (cimicoxib) was IV administrated to male SD rats in vivo [2 mg/kg, 2 mg/ml, menstruum: DMSO/PEG 400/30% HP-b-CD ([…])], T1/2 was 3.20 h. The half-life of compound 1 was longer than cimicoxib.

T1 sequence (P23219 24-599): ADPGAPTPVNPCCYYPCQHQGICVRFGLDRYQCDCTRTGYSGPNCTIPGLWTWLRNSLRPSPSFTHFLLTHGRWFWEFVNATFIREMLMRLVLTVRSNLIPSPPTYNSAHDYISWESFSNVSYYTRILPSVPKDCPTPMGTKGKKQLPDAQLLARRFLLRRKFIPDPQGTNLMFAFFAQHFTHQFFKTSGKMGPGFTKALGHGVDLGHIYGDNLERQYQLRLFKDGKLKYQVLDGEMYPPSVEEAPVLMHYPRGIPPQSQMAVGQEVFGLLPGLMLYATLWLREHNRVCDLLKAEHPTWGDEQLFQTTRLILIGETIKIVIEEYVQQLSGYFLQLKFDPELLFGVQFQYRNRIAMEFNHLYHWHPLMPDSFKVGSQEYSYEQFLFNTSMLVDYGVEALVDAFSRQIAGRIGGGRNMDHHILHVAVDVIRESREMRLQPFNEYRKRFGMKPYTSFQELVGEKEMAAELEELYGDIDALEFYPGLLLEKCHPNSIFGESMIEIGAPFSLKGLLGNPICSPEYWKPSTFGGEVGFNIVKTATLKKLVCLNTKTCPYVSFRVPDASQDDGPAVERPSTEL

| SMILES | IC50 [1] [µM] | IC50COX-1/IC50COX-2 [2] | IC50 [2] [µM] | IC50 (COX-1) [µM] | IC50COX-1/IC50COX-2 (COX-2) | IC50 (COX-2) [µM] | t1/2 [3] [h] | AUC(0-t) ([3]; rat, in vivo) [ng·h/mL] | C0 ([3]; rat, in vivo) [ng/mL] | clearance ([3]; rat, in vivo) [mL/min/kg] | half-life ([3]; rat, in vivo, 2 mg/ml, DMSO/PEG 400/30% HP-b-CD) [h] | Vd ([3]; rat, in vivo, read-out: Vss) [L/kg] |
| --- | --- | --- | --- | --- | --- | --- | --- | --- | --- | --- | --- | --- |
| COc1ccc(-c2c(Cl)ncn2-c2ccc(S(C)(=O)=O)nc2)cc1 [Compound 9, 5-(4-chloro-5-(4-methoxyphenyl)-1H-imidazol-1-yl)-2-(methylsulfonyl)pyridine] | 62.5 | 247.2 | 0.253 | 553 | 239.6 | 2.31 | – | – | – | – | – | – |
| COc1ccc(-c2c(Cl)ncn2-c2ccc(S(N)(=O)=O)cc2)cc1F [Cimicoxib, reference compound] | 4.16 | 8.8 | 0.471 | 15.6 | 9.5 | 1.65 | 3.20 ± 0.80 | 12000 ± 4400 | 1980 ± 140 | 2.99 ± 0.92 | 3.2 | 0.773 ± 0.145 |
| CS(=O)(=O)c1ccc(-n2cnc(Cl)c2-c2cccnc2)nc1 [Compound 7, 2-(4-chloro-5-(pyridin-3-yl)-1H-imidazol-1-yl)-5-(methylsulfonyl)pyridine] | 54 | 19.0 | 2.84 | – | – | – | – | – | – | – | – | – |
| Cc1ccc(-c2c(Cl)ncn2-c2ccc(S(C)(=O)=O)cn2)cc1 [Compound 3, 2-(4-chloro-5-p-tolyl-1H-imidazol-1-yl)-5-(methylsulfonyl)pyridine] | 19.7 | 76.2 | 0.259 | 30.2 | 18.8 | 1.61 | – | – | – | – | – | – |
| CS(=O)(=O)c1ccc(-n2cncc2-c2ccccc2)cn1 [Compound 8E, 2-(methylsulfonyl)-5-(5-phenyl-1H-imidazol-1-yl)pyridine] | 187 | – | > 1670 | – | – | – | – | – | – | – | – | – |
| COc1ccc(-c2c(Cl)ncn2-c2ccc(S(C)(=O)=O)cn2)cc1F [Compound 6, 2-(4-chloro-5-(3-fluoro-4-methoxyphenyl)-1H-imidazol-1-yl)-5-(methylsulfonyl)pyridine] | 8.8 | 25.8 | 0.34 | – | – | – | – | – | – | – | – | – |
| CS(=O)(=O)c1ccc(-n2cnc(Cl)c2-c2ccc(Cl)cc2Cl)nc1 [Compound 4, 2-(4-chloro-5-(2,4-dichlorophenyl)-1H-imidazol-1-yl)-5-(methylsulfonyl)pyridine] | 45.6 | 26.2 | 1.74 | – | – | – | – | – | – | – | – | – |
| CS(=O)(=O)c1ccc(-n2cnc(Cl)c2-c2ccc(F)cc2)nc1 [Compound 2, 2-(4-chloro-5-(4-fluorophenyl)-1H-imidazol-1-yl)-5-(methylsulfonyl)pyridine] | 11.2 | 21.8 | 0.512 | 55.9 | 21.4 | 2.62 | – | – | – | – | – | – |
